Results published in patent US20260069588A1, “VEPDEGESTRANT FOR USE IN TREATING CANCER” (Arvinas Operation, Inc., priority 2022, published 2026).

Experiment: FIH Study Part A dose escalation: adverse events
From the text: TEAEs and TRAEs from the clinical study database were coded to system organ class and preferred term using MedDRA version 22.0 and SAEs from the centralized safety database were coded using MedDRA version 25.0. The severity of adverse events was graded according to the NCI CTCAE version 5.0.

O=C1CC[C@H](N2Cc3cc(N4CCN(CC5CCN(c6ccc([C@@H]7c8ccc(O)cc8CC[C@@H]7c7ccccc7)cc6)CC5)CC4)ccc3C2=O)C(=O)N1 [Compound A, (S)-3-(5-(4-((1-(4-((1R,2S)-6-hydroxy-2-phenyl-1,2,3,4-tetrahydronaphthalen-1-yl)phenyl)piperidin-4-yl)methyl)piperazin-1-yl)-1-oxoisoindolin-2-yl)piperidine-2,6-dione]
TEAE Alanine aminotransferase increased (30 mg (N=3)): 0 n | TEAE Arthralgia (30 mg (N=3)): 0 n | TEAE Aspartate aminotransferase increased (30 mg (N=3)): 0 n | TEAE Back pain (30 mg (N=3)): 0 n | TEAE Constipation (30 mg (N=3)): 0 n | TEAE Decreased appetite (30 mg (N=3)): 0 n | TEAE Diarrhea (30 mg (N=3)): 0 n | TEAE Dizziness (30 mg (N=3)): 0 n | TEAE Fatigue (30 mg (N=3)): 0 n | TEAE Headache (30 mg (N=3)): 0 n | TEAE Hot flush (30 mg (N=3)): 1 n | TEAE Hyperglycemia (30 mg (N=3)): 0 n | TEAE Insomnia (30 mg (N=3)): 1 n | TEAE Nausea (30 mg (N=3)): 0 n | TEAE Pain in extremity (30 mg (N=3)): 0 n | TEAE Vomiting (30 mg (N=3)): 0 n | TRAE Arthralgia (30 mg (N=3)): 0 n | TRAE Constipation (30 mg (N=3)): 0 n | TRAE Decreased appetite (30 mg (N=3)): 0 n | TRAE Fatigue (30 mg (N=3)): 0 n | TRAE Hot flush (30 mg (N=3)): 0 n | TRAE Nausea (30 mg (N=3)): 0 n | TRAE Vomiting (30 mg (N=3)): 0 n | TEAE Alanine aminotransferase increased (60 mg (N=3)): 0 n | TEAE Arthralgia (60 mg (N=3)): 1 n | TEAE Aspartate aminotransferase increased (60 mg (N=3)): 0 n | TEAE Back pain (60 mg (N=3)): 0 n | TEAE Constipation (60 mg (N=3)): 1 n | TEAE Decreased appetite (60 mg (N=3)): 0 n | TEAE Diarrhea (60 mg (N=3)): 0 n | TEAE Dizziness (60 mg (N=3)): 1 n | TEAE Fatigue (60 mg (N=3)): 1 n | TEAE Headache (60 mg (N=3)): 1 n | TEAE Hot flush (60 mg (N=3)): 0 n | TEAE Hyperglycemia (60 mg (N=3)): 0 n | TEAE Insomnia (60 mg (N=3)): 0 n | TEAE Nausea (60 mg (N=3)): 2 n | TEAE Pain in extremity (60 mg (N=3)): 1 n | TEAE Vomiting (60 mg (N=3)): 0 n | TRAE Arthralgia (60 mg (N=3)): 1 n | TRAE Constipation (60 mg (N=3)): 0 n | TRAE Decreased appetite (60 mg (N=3)): 0 n | TRAE Fatigue (60 mg (N=3)): 1 n | TRAE Hot flush (60 mg (N=3)): 0 n | TRAE Nausea (60 mg (N=3)): 2 n | TRAE Vomiting (60 mg (N=3)): 0 n | TEAE Alanine aminotransferase increased (100 mg (N=9)): 0 n | TEAE Arthralgia (100 mg (N=9)): 2 n | TEAE Aspartate aminotransferase increased (100 mg (N=9)): 0 n | TEAE Back pain (100 mg (N=9)): 1 n | TEAE Constipation (100 mg (N=9)): 2 n | TEAE Decreased appetite (100 mg (N=9)): 2 n | TEAE Diarrhea (100 mg (N=9)): 4 n | TEAE Dizziness (100 mg (N=9)): 0 n | TEAE Fatigue (100 mg (N=9)): 2 n | TEAE Headache (100 mg (N=9)): 1 n | TEAE Hot flush (100 mg (N=9)): 1 n | TEAE Hyperglycemia (100 mg (N=9)): 0 n | TEAE Insomnia (100 mg (N=9)): 0 n | TEAE Nausea (100 mg (N=9)): 2 n | TEAE Pain in extremity (100 mg (N=9)): 0 n | TEAE Vomiting (100 mg (N=9)): 1 n | TRAE Arthralgia (100 mg (N=9)): 1 n | TRAE Constipation (100 mg (N=9)): 1 n | TRAE Decreased appetite (100 mg (N=9)): 2 n | TRAE Fatigue (100 mg (N=9)): 1 n | TRAE Hot flush (100 mg (N=9)): 1 n | TRAE Nausea (100 mg (N=9)): 1 n | TRAE Vomiting (100 mg (N=9)): 0 n | TEAE Alanine aminotransferase increased (120 mg (N=7)): 1 n | TEAE Arthralgia (120 mg (N=7)): 2 n | TEAE Aspartate aminotransferase increased (120 mg (N=7)): 3 n | TEAE Back pain (120 mg (N=7)): 1 n | TEAE Constipation (120 mg (N=7)): 2 n | TEAE Decreased appetite (120 mg (N=7)): 3 n | TEAE Diarrhea (120 mg (N=7)): 0 n | TEAE Dizziness (120 mg (N=7)): 1 n | TEAE Fatigue (120 mg (N=7)): 0 n | TEAE Headache (120 mg (N=7)): 2 n | TEAE Hot flush (120 mg (N=7)): 1 n | TEAE Hyperglycemia (120 mg (N=7)): 1 n | TEAE Insomnia (120 mg (N=7)): 1 n | TEAE Nausea (120 mg (N=7)): 2 n | TEAE Pain in extremity (120 mg (N=7)): 2 n | TEAE Vomiting (120 mg (N=7)): 2 n | TRAE Arthralgia (120 mg (N=7)): 2 n | TRAE Constipation (120 mg (N=7)): 1 n | TRAE Decreased appetite (120 mg (N=7)): 3 n | TRAE Fatigue (120 mg (N=7)): 0 n | TRAE Hot flush (120 mg (N=7)): 0 n | TRAE Nausea (120 mg (N=7)): 2 n | TRAE Vomiting (120 mg (N=7)): 2 n | TEAE Alanine aminotransferase increased (180 mg (N=7)): 2 n | TEAE Arthralgia (180 mg (N=7)): 2 n | TEAE Aspartate aminotransferase increased (180 mg (N=7)): 2 n | TEAE Back pain (180 mg (N=7)): 0 n | TEAE Constipation (180 mg (N=7)): 1 n | TEAE Decreased appetite (180 mg (N=7)): 0 n | TEAE Diarrhea (180 mg (N=7)): 0 n | TEAE Dizziness (180 mg (N=7)): 0 n | TEAE Fatigue (180 mg (N=7)): 2 n | TEAE Headache (180 mg (N=7)): 0 n | TEAE Hot flush (180 mg (N=7)): 0 n | TEAE Hyperglycemia (180 mg (N=7)): 0 n | TEAE Insomnia (180 mg (N=7)): 0 n | TEAE Nausea (180 mg (N=7)): 2 n | TEAE Pain in extremity (180 mg (N=7)): 1 n | TEAE Vomiting (180 mg (N=7)): 0 n | TRAE Arthralgia (180 mg (N=7)): 1 n | TRAE Constipation (180 mg (N=7)): 0 n | TRAE Decreased appetite (180 mg (N=7)): 0 n | TRAE Fatigue (180 mg (N=7)): 1 n | TRAE Hot flush (180 mg (N=7)): 0 n | TRAE Nausea (180 mg (N=7)): 2 n | TRAE Vomiting (180 mg (N=7)): 0 n | TEAE Alanine aminotransferase increased (200 mg (N=8)): 2 n | TEAE Arthralgia (200 mg (N=8)): 1 n | TEAE Aspartate aminotransferase increased (200 mg (N=8)): 3 n | TEAE Back pain (200 mg (N=8)): 1 n | TEAE Constipation (200 mg (N=8)): 2 n | TEAE Decreased appetite (200 mg (N=8)): 0 n | TEAE Diarrhea (200 mg (N=8)): 1 n | TEAE Dizziness (200 mg (N=8)): 0 n | TEAE Fatigue (200 mg (N=8)): 1 n | TEAE Headache (200 mg (N=8)): 1 n | TEAE Hot flush (200 mg (N=8)): 1 n | TEAE Hyperglycemia (200 mg (N=8)): 1 n | TEAE Insomnia (200 mg (N=8)): 1 n | TEAE Nausea (200 mg (N=8)): 3 n | TEAE Pain in extremity (200 mg (N=8)): 0 n | TEAE Vomiting (200 mg (N=8)): 1 n | TRAE Arthralgia (200 mg (N=8)): 1 n | TRAE Constipation (200 mg (N=8)): 2 n | TRAE Decreased appetite (200 mg (N=8)): 0 n | TRAE Fatigue (200 mg (N=8)): 0 n | TRAE Hot flush (200 mg (N=8)): 1 n
